Measured values as given in PubChem BioAssay AID540316 (Broad Institute, 2011).
Results filed as inconclusive are left out. Active and inactive are the calls of the source.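 Rule for the calls: active = compounds lowering viability whose fitted half-maximal concentration is at most tenfold the top tested dose; inconclusive = flat curve with viability loss of 30 to 70%, or bad fit; inactive = the rest.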

System: not listed separately
Experiment: cytotoxicity toward BJeH engineered cells – cell-based, plate reader, dry powder, set 4, counter-screen for Ras selective lethality project, dose response (AID 540316)
Conditions: BJeH fibroblasts viability, Alamar Blue fluorescence, 48 h; at 48 µM (top of the series)

Question: Which activity change, negative = fewer viable cells does the source give for `Cc1onc(C(=O)N2CCCN(C(c3ccccc3)c3ccccc3)CC2)c1[N+](=O)[O-]` here?
Answer: Its activity change, negative = fewer viable cells is -10.7% (inactive).

Question: For `Cc1onc(CC(=O)N2CCN(C(c3ccc(F)cc3)c3ccc(F)cc3)CC2)c1[N+](=O)[O-]`, which activity change, negative = fewer viable cells is on record?
Answer: The activity change, negative = fewer viable cells was -13.5% (inactive).

Question: Which activity change, negative = fewer viable cells does the source give for `Cc1onc(C(=O)NCCNC(c2ccccc2)c2ccccc2)c1[N+](=O)[O-]` here?
Answer: The activity change, negative = fewer viable cells was -11.9% (inactive).

Question: Which activity change, negative = fewer viable cells does the source give for `Cc1onc(C(=O)N2CCN(Cc3ccccc3)CC2)c1[N+](=O)[O-]` here?
Answer: The activity change, negative = fewer viable cells was -0.245% (inactive).

Question: For `Cc1onc(C(=O)N2CCN(C(c3ccccc3)c3ccccc3)CC2)c1[N+](=O)[O-]`, which activity change, negative = fewer viable cells is on record?
Answer: The activity change, negative = fewer viable cells was -11.7% (inactive).

System: BJeH fibroblasts viability, Alamar Blue fluorescence, 48 h
Experiment: as above
Conditions: not given

Question: With `O=C(NCCNC(c1ccccc1)c1ccccc1)c1ccc([N+](=O)[O-])o1` as the compound, how does the AC50 read?
Answer: The AC50 was 5.31 µM.

Question: For `COc1ccc(C(c2ccc(OC)cc2)N2CCN(C(=O)c3ccc([N+](=O)[O-])o3)CC2)cc1`, which AC50 is on record?
Answer: The AC50 was 6.76 µM.

Question: With `CCOc1ccccc1-n1c(C(C)N2CCN(C(=O)COc3ccc(Cl)cc3)CC2)nc2ccccc2c1=O` (stereo not given) as the compound, how does the AC50 read?
Answer: Its AC50 is 7.93 µM.

Question: Which AC50 does the source give for `O=C(c1ccc([N+](=O)[O-])o1)N1CCN(C(c2ccc(F)cc2)c2ccc(F)cc2)CC1` here?
Answer: Its AC50 is 14.2 µM.

Question: Which AC50 does the source give for `COC(=O)c1ccc([C@@H]2c3[nH]c4ccccc4c3C[C@@H](C(=O)OC)N2C(=O)CCl)cc1` here?
Answer: The AC50 was 2.68 µM.
